Test results from ChEMBL document CHEMBL3351245, “Chlorinated polyketide obtained from a Daldinia sp. treated with the epigenetic modifier suberoylanilide hydroxamic acid” (J Nat Prod, 2014).
Activity calls are given as the source filed them. No cut-off for these calls is given here.

What was measured:
[1] = system: Staphylococcus aureus; assay: Antimicrobial activity against methicillin-resistant Staphylococcus aureus; type: functional, organism-based
[2] = system: MIA PaCa-2; assay: Cytotoxicity against human MIAPaCa2 cells by MTT assay; type: functional, cell-based
[3] = system: Klebsiella pneumoniae; assay: Antimicrobial activity against Klebsiella pneumoniae; type: functional, organism-based
[4] = Antioxidant activity assessed as DPPH radical scavenging activity incubated for 30 mins; type: physicochemical

| SMILES | Activity [1] | Activity [2] | Activity [3] | IC50 [4] |
| --- | --- | --- | --- | --- |
| O=C1c2c3c(cc(O)c2[C@H](O)[C@H](O)[C@@H]1Cl)-c1ccc(O)c2c(O)ccc-3c12 | inactive | inactive | inactive | 3.6 µM |
| O=C1c2c3c(cc(O)c2[C@H](O)[C@@H]2O[C@H]12)-c1ccc(O)c2c(O)ccc-3c12 | inactive | inactive | inactive | 3.1 µM |
| O=C1O[C@H]([C@@H](O)CO)C(O)=C1O [ASCORBIC ACID] |  |  |  | 3.2 µM |
